Organism: Rattus norvegicus
Test: DrugMatrix - Regimen: Daily Repeat
Type: toxicity, organism-based, Sprague-Dawley
Parameters: regimen Daily Repeat, gender Male, age 6-8 weeks
Conditions: in vivo, po, route oral GAVAGE, vehicle 100 % WATER; for ABSOLUTE BASOPHIL / ABSOLUTE EOSINOPHIL / ABSOLUTE LYMPHOCYTE / ABSOLUTE MONOCYTE / ABSOLUTE SEGMENTED NEUTROPHIL / BASOPHIL / EOSINOPHIL / ERYTHROCYTE COUNT / HEMATOCRIT / HEMOGLOBIN / LEUKOCYTE COUNT / LYMPHOCYTE / MEAN CORPUSCULAR HEMOGLOBIN / MEAN CORPUSCULAR HEMOGLOBIN CONCENTRATION / MEAN CORPUSCULAR VOLUME / MONOCYTE / NEUTROPHIL / NUCLEATED RED BLOOD CELLS / PLATELET COUNT: tissue Blood; for ALANINE AMINOTRANSFERASE / ALBUMIN / ALKALINE PHOSPHATASE / ASPARTATE AMINOTRANSFERASE / BLOOD UREA NITROGEN / CARBON DIOXIDE / CHLORIDE / CHOLESTEROL / CREATINE PHOSPHOKINASE / CREATININE / GLUCOSE / LACTATE DEHYDROGENASE / LIPASE / PHOSPHORUS / POTASSIUM / SODIUM / TOTAL BILIRUBIN / TOTAL PROTEIN / URIC ACID: tissue Plasma
[1] = 120 mg/kg, 120 h, dose level Low, time 5 day
[2] = 1200 mg/kg, 72 h, dose level High, time 3 day
[3] = 1200 mg/kg, 120 h, dose level High, time 5 day

CCN(CC)CCNC(=O)c1cc(S(C)(=O)=O)ccc1OC [TIAPRIDE]
ABSOLUTE BASOPHIL [1]: 0 CELLS/uL | ABSOLUTE EOSINOPHIL [1]: 28 CELLS/uL | ABSOLUTE LYMPHOCYTE [1]: 7405.67 CELLS/uL | ABSOLUTE MONOCYTE [1]: 0 CELLS/uL | ABSOLUTE SEGMENTED NEUTROPHIL [1]: 299.67 CELLS/uL | BASOPHIL [1]: 0% | EOSINOPHIL [1]: 0.33% | ERYTHROCYTE COUNT [1]: 5.54 x10E6/uL | HEMATOCRIT [1]: 34.8% | HEMOGLOBIN [1]: 13.1 G/DL | LEUKOCYTE COUNT [1]: 7.73 x10E3/uL | LYMPHOCYTE [1]: 95.67% | MEAN CORPUSCULAR HEMOGLOBIN [1]: 23.67 pg | MEAN CORPUSCULAR HEMOGLOBIN CONCENTRATION [1]: 37.7 G/DL | MEAN CORPUSCULAR VOLUME [1]: 62.73 fL | MONOCYTE [1]: 0% | NEUTROPHIL [1]: 4% | NUCLEATED RED BLOOD CELLS [1]: 0 /100WBC | PLATELET COUNT [1]: 1102.33 x10E3/uL | ALANINE AMINOTRANSFERASE [1]: 42 u/L | ALBUMIN [1]: 4.3 G/DL | ALKALINE PHOSPHATASE [1]: 382 u/L | ASPARTATE AMINOTRANSFERASE [1]: 80.33 u/L | BLOOD UREA NITROGEN [1]: 15.33 mg/dL | CARBON DIOXIDE [1]: 27.67 mmol/L | CHLORIDE [1]: 103 MEQ/L | CHOLESTEROL [1]: 70.67 mg/dL | CREATINE PHOSPHOKINASE [1]: 223.33 u/L | CREATININE [1]: 0.19 mg/dL | GLUCOSE [1]: 142.33 mg/dL | LACTATE DEHYDROGENASE [1]: 132.33 u/L | LIPASE [1]: 8.33 u/L | PHOSPHORUS [1]: 11.83 mg/dL | POTASSIUM [1]: 6.07 MEQ/L | SODIUM [1]: 149.23 MEQ/L | TOTAL BILIRUBIN [1]: 0.27 mg/dL | TOTAL PROTEIN [1]: 6.03 G/DL | URIC ACID [1]: 0.97 mg/dL | ABSOLUTE BASOPHIL [2]: 0 CELLS/uL | ABSOLUTE EOSINOPHIL [2]: 187.33 CELLS/uL | ABSOLUTE LYMPHOCYTE [2]: 11272.67 CELLS/uL | ABSOLUTE MONOCYTE [2]: 0 CELLS/uL | ABSOLUTE SEGMENTED NEUTROPHIL [2]: 806.67 CELLS/uL | BASOPHIL [2]: 0% | EOSINOPHIL [2]: 1.33% | ERYTHROCYTE COUNT [2]: 6.23 x10E6/uL | HEMATOCRIT [2]: 38.93% | HEMOGLOBIN [2]: 14.8 G/DL | LEUKOCYTE COUNT [2]: 12.27 x10E3/uL | LYMPHOCYTE [2]: 92.33% | MEAN CORPUSCULAR HEMOGLOBIN [2]: 23.73 pg | MEAN CORPUSCULAR HEMOGLOBIN CONCENTRATION [2]: 38.03 G/DL | MEAN CORPUSCULAR VOLUME [2]: 62.5 fL | MONOCYTE [2]: 0% | NEUTROPHIL [2]: 6.33% | NUCLEATED RED BLOOD CELLS [2]: 0 /100WBC | PLATELET COUNT [2]: 1394 x10E3/uL | ALANINE AMINOTRANSFERASE [2]: 38 u/L | ALBUMIN [2]: 4.53 G/DL | ALKALINE PHOSPHATASE [2]: 408 u/L | ASPARTATE AMINOTRANSFERASE [2]: 80 u/L | BLOOD UREA NITROGEN [2]: 22.33 mg/dL | CARBON DIOXIDE [2]: 23.33 mmol/L | CHLORIDE [2]: 107 MEQ/L | CHOLESTEROL [2]: 76.33 mg/dL | CREATINE PHOSPHOKINASE [2]: 431 u/L | CREATININE [2]: 0.22 mg/dL | GLUCOSE [2]: 189.67 mg/dL | LACTATE DEHYDROGENASE [2]: 523.33 u/L | LIPASE [2]: 8.33 u/L | PHOSPHORUS [2]: 14.8 mg/dL | POTASSIUM [2]: 6.75 MEQ/L | SODIUM [2]: 147.23 MEQ/L | TOTAL BILIRUBIN [2]: 0.27 mg/dL | TOTAL PROTEIN [2]: 6.37 G/DL | URIC ACID [2]: 1.9 mg/dL | ABSOLUTE BASOPHIL [3]: 0 CELLS/uL | ABSOLUTE EOSINOPHIL [3]: 212 CELLS/uL | ABSOLUTE LYMPHOCYTE [3]: 15513 CELLS/uL | ABSOLUTE MONOCYTE [3]: 0 CELLS/uL | ABSOLUTE SEGMENTED NEUTROPHIL [3]: 1775 CELLS/uL | BASOPHIL [3]: 0% | EOSINOPHIL [3]: 1% | ERYTHROCYTE COUNT [3]: 5.86 x10E6/uL | HEMATOCRIT [3]: 36.5% | HEMOGLOBIN [3]: 13.9 G/DL | LEUKOCYTE COUNT [3]: 17.5 x10E3/uL | LYMPHOCYTE [3]: 89.33% | MEAN CORPUSCULAR HEMOGLOBIN [3]: 23.73 pg | MEAN CORPUSCULAR HEMOGLOBIN CONCENTRATION [3]: 38.1 G/DL | MEAN CORPUSCULAR VOLUME [3]: 62.33 fL | MONOCYTE [3]: 0% | NEUTROPHIL [3]: 9.67% | NUCLEATED RED BLOOD CELLS [3]: 0 /100WBC | PLATELET COUNT [3]: 1226 x10E3/uL | ALANINE AMINOTRANSFERASE [3]: 48.67 u/L | ALBUMIN [3]: 4.17 G/DL | ALKALINE PHOSPHATASE [3]: 452.67 u/L | ASPARTATE AMINOTRANSFERASE [3]: 83.67 u/L | BLOOD UREA NITROGEN [3]: 17.33 mg/dL | CARBON DIOXIDE [3]: 26.33 mmol/L | CHLORIDE [3]: 102.67 MEQ/L | CHOLESTEROL [3]: 66 mg/dL | CREATINE PHOSPHOKINASE [3]: 508.33 u/L | CREATININE [3]: 0.27 mg/dL | GLUCOSE [3]: 161.67 mg/dL | LACTATE DEHYDROGENASE [3]: 191.33 u/L | LIPASE [3]: 8 u/L | PHOSPHORUS [3]: 14.53 mg/dL | POTASSIUM [3]: 6.21 MEQ/L | SODIUM [3]: 146.03 MEQ/L | TOTAL BILIRUBIN [3]: 0.27 mg/dL | TOTAL PROTEIN [3]: 6.03 G/DL | URIC ACID [3]: 1.73 mg/dL

Source: ChEMBL document CHEMBL3885881, “DrugMatrix”
